Data taken from patent US11312781B2, “Antigen binding molecules that bind LIGHT” (Capella Bioscience Ltd., priority 2018, dated 2022).

What was measured:
[1] = tested on: CMV stimulated human PBMC; experiment: Human PBMC antigen specific (CMV) recall response in vitro, cytokines by Luminex; format: cell-based; conditions: CMV stimulation, 5 day incubation; for IFN gamma production from PBMC: FIG. 11B
Method: In order to test the efficacy of anti-LIGHT mAbs on stimulated PBMC a recall antigen CMV (cytomegalovirus) lysate was utilised to stimulate PBMC from human CMV-positive donors (ImmunXperts, Belgium). 200 000 cells per well in RPMI (Thermofisher cat. no. 11875) plus 10% FBS (GIBCO) was added to CMV lysate (Serion immunologics cat. no. BA109VS, final concentration 10 ug/ml) with test mAbs in a volume of 200 ul. After a 5 day incubation at 37C and 5% CO2 the media was recovered by centrifugation and assayed for cytokines by Luminex immunoassay (ThermoFisher).

[2] = tested on: DSS-induced colitis in hu-NOG mice; experiment: DSS-induced acute colitis in humanized (hu-NOG) mice; format: in vivo, mouse (hu-NOG); conditions: i.p. days 0, 3, 6, 9, versus IgG control, FIG. 9
Method: The experiments were carried out with the NOD/Shi-scid/IL-2Rγnull immunodeficient mouse strain (NOG) engrafted with CD34+ hematopoietic stem cells isolated from human cord blood as described in Manfroi B et al. (Cancer Res. 2017; 77:1097-1107). The reconstitution of the human immune system in the mice occurred for at least 14 weeks, and hu-mice were used that had at least 25% human CD45+/total CD45 cells. Female hu-NOG mice were randomised into 3 groups (n=10) taking into account the humanization rate and the CD34+ cell donors. All animal studies described in this study have been reviewed and approved by the local ethic committee (CELEAG). Mice were allowed to acclimate to the experimental environment for 5 days prior to the beginning of the experiment. The DSS was administrated for 7 days, from day 2 to 8. The DSS (3%) was added to the drinking water (ad libitum) and freshly renewed every two days.
All treatments started before the DSS-induced colitis. 3B04 variant 16 (5 mg/kg) and the isotype control and anti-TNF (Humira) antibodies (10 mg/kg) were administrated i.p. on days 0, 3, 6, 9. The experiment was terminated on day 12. The following parameters were recorded daily for 12 days: body weight in grams (g); diarrhea and stool consistency; bleeding and mortality. The global clinical score was calculated as follows: […]

| Molecule | IL-17 production from PBMC ([1]; FIG. 11A) | IFN gamma production from PBMC [1] | Global clinical score [2] |
| --- | --- | --- | --- |
| C[C@@H]1CCN(C(=O)CC#N)C[C@@H]1N(C)c1ncnc2[nH]ccc12 [Tofacitinib, reference compound] | inhibited | inhibited | – |
| Opdivo: anti-PD-1 antibody, positive control in the PBMC assay (10 ug/ml) [reference compound] | – | increased | – |
| adalimumab [humira, reference compound] | – | – | significant drop in the global clinical score from days 9 to 11 |
